According to US20220306695A1, “COMPSTATIN ANALOGUES AND THEIR MEDICAL USES” (priority 2019, published 2022):
Positions of bridges follow the written chain, without caps; N, C: chain ends. Non-standard residues stand in square brackets, D forms with d. Residues, ends and D or L forms follow the SMILES beside them. Trp(1-Me) = Cn1cc(C[C@H](N)C(=O)O)c2ccccc21; Sar = CNCC(=O)O

Legend:
[1] = system: classical complement pathway; experiment: In vitro haemolysis assay (inhibition of classical complement pathway); format: cell-based, human; settings: Table 3; human serum, sensitized sheep red blood cells; read-out: IC50[nM], in vitro analysis of inhibition of hemolysis
In short: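 Serially diluted compound (9 points) was preincubated 15 min at room temperature with diluted human serum, titrated per batch to give 70-90% maximal haemolysis, in Tris/casein buffer pH 7.4 with Mg2+/Ca2+. Antibody-sensitized sheep erythrocytes were then added for 30 min at 37° C, and the reaction was stopped with EDTA. Haemolysis was read at A405, with IC50 from 4PL fit.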

[2] = Solubility test at 10 mg/mL (visual inspection and light scattering); format: physicochemical; settings: for Solubility, Condition 1 Acetate pH 4: 10 mg/mL compound in 100 mM acetate pH 4; for Solubility, Condition 2 Acetate pH 5: 10 mg/mL compound in 100 mM acetate pH 5; for Solubility, Condition 3 Phosphate pH 6: 10 mg/mL compound in 100 mM phosphate pH 6; for Solubility, Condition 4 Phosphate pH 7: 10 mg/mL compound in 100 mM phosphate pH 7; for Solubility, Condition 5 Phosphate pH 7.5: 10 mg/mL compound in 100 mM phosphate pH 7.5

SMILES | IC50 [1] | Solubility, Condition 1 Acetate pH 4 [2] | Solubility, Condition 2 Acetate pH 5 [2] | Solubility, Condition 3 Phosphate pH 6 [2] | Solubility, Condition 4 Phosphate pH 7 [2] | Solubility, Condition 5 Phosphate pH 7.5 [2]
CC[C@H](C)[C@H](NC(=O)[C@H](C)NC(=O)[C@H](CO)NC(=O)CNC(C)=O)C(=O)N[C@H]1CSSC[C@@H](C(=O)N(C)CC(=O)N[C@@H](CCC(=O)O)C(N)=O)NC(=O)[C@H](CCCNC(=N)N)NC(=O)[C@H](Cc2c[nH]cn2)NC(=O)[C@H](CCC(=O)O)NC(=O)CNC(=O)[C@H](Cc2c[nH]c3ccccc23)NC(=O)[C@H](CC(=O)O)NC(=O)[C@H](CCC(N)=O)NC(=O)[C@H](Cc2c[nH]c3ccccc23)NC(=O)[C@H]([C@@H](C)CC)NC1=O [Compound 40] (Ac-GSAICIWQDWGEHRC[Sar]E-NH2; disulfide 5-15) | < 250 nM | − (denotes lack of solubility at the given condition, as UV absorbance at 340 nm exceeds 0.1 AU and/or it is visibly turbid or contains particles.) | − (denotes lack of solubility at the given condition, as UV absorbance at 340 nm exceeds 0.1 AU and/or it is visibly turbid or contains particles.) | + (denotes solubility at the given condition, as determined by UV absorbance being less than 0.1 AU at 340 nm and the sample being clear when manually inspected.) | + (denotes solubility at the given condition, as determined by UV absorbance being less than 0.1 AU at 340 nm and the sample being clear when manually inspected.) | + (denotes solubility at the given condition, as determined by UV absorbance being less than 0.1 AU at 340 nm and the sample being clear when manually inspected.)
CC[C@H](C)[C@H](NC(=O)[C@H](C)NC(=O)[C@H](CO)NC(C)=O)C(=O)N[C@H]1CSSC[C@@H](C(=O)N(C)CC(=O)N[C@@H](CCC(=O)O)C(N)=O)NC(=O)[C@H](CCCNC(=N)N)NC(=O)[C@H](Cc2c[nH]cn2)NC(=O)[C@H](CCC(=O)O)NC(=O)CNC(=O)[C@H](Cc2c[nH]c3ccccc23)NC(=O)[C@H](CC(=O)O)NC(=O)[C@H](CCC(N)=O)NC(=O)[C@H](Cc2c[nH]c3ccccc23)NC(=O)[C@H]([C@@H](C)CC)NC1=O [Compound 41] (Ac-SAICIWQDWGEHRC[Sar]E-NH2; disulfide 4-14) | < 250 nM | − (denotes lack of solubility at the given condition, as UV absorbance at 340 nm exceeds 0.1 AU and/or it is visibly turbid or contains particles.) | − (denotes lack of solubility at the given condition, as UV absorbance at 340 nm exceeds 0.1 AU and/or it is visibly turbid or contains particles.) | + (denotes solubility at the given condition, as determined by UV absorbance being less than 0.1 AU at 340 nm and the sample being clear when manually inspected.) | + (denotes solubility at the given condition, as determined by UV absorbance being less than 0.1 AU at 340 nm and the sample being clear when manually inspected.) | + (denotes solubility at the given condition, as determined by UV absorbance being less than 0.1 AU at 340 nm and the sample being clear when manually inspected.)
CC[C@H](C)[C@H](NC(=O)[C@H](C)NC(=O)[C@H](CO)NC(=O)CNC(=O)[C@H](CCC(=O)O)NC(C)=O)C(=O)N[C@H]1CSSC[C@@H](C(=O)N(C)CC(=O)N[C@@H](CCC(=O)O)C(=O)NCC(=O)N[C@@H](CCC(=O)O)C(N)=O)NC(=O)[C@H](CCCNC(=N)N)NC(=O)[C@H](Cc2c[nH]cn2)NC(=O)[C@H](CCC(=O)O)NC(=O)CNC(=O)[C@H](Cc2c[nH]c3ccccc23)NC(=O)[C@H](CC(=O)O)NC(=O)[C@H](CCC(N)=O)NC(=O)[C@H](Cc2c[nH]c3ccccc23)NC(=O)[C@H]([C@@H](C)CC)NC1=O [Compound 44] (Ac-EGSAICIWQDWGEHRC[Sar]EGE-NH2; disulfide 6-16) | < 250 nM | − (denotes lack of solubility at the given condition, as UV absorbance at 340 nm exceeds 0.1 AU and/or it is visibly turbid or contains particles.) | − (denotes lack of solubility at the given condition, as UV absorbance at 340 nm exceeds 0.1 AU and/or it is visibly turbid or contains particles.) | + (denotes solubility at the given condition, as determined by UV absorbance being less than 0.1 AU at 340 nm and the sample being clear when manually inspected.) | + (denotes solubility at the given condition, as determined by UV absorbance being less than 0.1 AU at 340 nm and the sample being clear when manually inspected.) | + (denotes solubility at the given condition, as determined by UV absorbance being less than 0.1 AU at 340 nm and the sample being clear when manually inspected.)
CC[C@H](C)[C@@H]1NC(=O)[C@@H](NC(=O)[C@H](Cc2ccccc2)NC(=O)[C@H](C)NC(=O)[C@H](CO)NC(=O)CNC(=O)[C@H](CCC(=O)O)NC(C)=O)CSSC[C@@H](C(=O)N(C)CC(=O)N[C@@H](CCC(=O)O)C(N)=O)NC(=O)[C@H](CCCNC(=N)N)NC(=O)[C@H](Cc2c[nH]cn2)NC(=O)[C@H](CCC(=O)O)NC(=O)CNC(=O)[C@H](Cc2c[nH]c3ccccc23)NC(=O)[C@H](CC(=O)O)NC(=O)[C@H](CCC(N)=O)NC(=O)[C@H](Cc2c[nH]c3ccccc23)NC1=O [Compound 45] (Ac-EGSAFCIWQDWGEHRC[Sar]E-NH2; disulfide 6-16) | < 100 nM | − (denotes lack of solubility at the given condition, as UV absorbance at 340 nm exceeds 0.1 AU and/or it is visibly turbid or contains particles.) | + (denotes solubility at the given condition, as determined by UV absorbance being less than 0.1 AU at 340 nm and the sample being clear when manually inspected.) | + (denotes solubility at the given condition, as determined by UV absorbance being less than 0.1 AU at 340 nm and the sample being clear when manually inspected.) | + (denotes solubility at the given condition, as determined by UV absorbance being less than 0.1 AU at 340 nm and the sample being clear when manually inspected.) | + (denotes solubility at the given condition, as determined by UV absorbance being less than 0.1 AU at 340 nm and the sample being clear when manually inspected.)
CC[C@H](C)[C@H](NC(=O)[C@H](C)NC(=O)[C@H](CO)NC(=O)CNC(=O)[C@H](CCC(=O)O)NC(C)=O)C(=O)N[C@H]1CSSC[C@@H](C(=O)N(C)CC(=O)N[C@@H](CCC(=O)O)C(N)=O)NC(=O)[C@H](CCCNC(=N)N)NC(=O)[C@H](Cc2c[nH]cn2)NC(=O)[C@H](CCC(=O)O)NC(=O)CNC(=O)[C@H](Cc2c[nH]c3ccccc23)NC(=O)[C@H](CC(=O)O)NC(=O)[C@H](CCC(N)=O)NC(=O)[C@H](Cc2cn(C)c3ccccc23)NC(=O)[C@H]([C@@H](C)CC)NC1=O [Compound 49] (Ac-EGSAICI[Trp(1-Me)]QDWGEHRC[Sar]E-NH2; disulfide 6-16) | < 100 nM | − (denotes lack of solubility at the given condition, as UV absorbance at 340 nm exceeds 0.1 AU and/or it is visibly turbid or contains particles.) | − (denotes lack of solubility at the given condition, as UV absorbance at 340 nm exceeds 0.1 AU and/or it is visibly turbid or contains particles.) | + (denotes solubility at the given condition, as determined by UV absorbance being less than 0.1 AU at 340 nm and the sample being clear when manually inspected.) | + (denotes solubility at the given condition, as determined by UV absorbance being less than 0.1 AU at 340 nm and the sample being clear when manually inspected.) | + (denotes solubility at the given condition, as determined by UV absorbance being less than 0.1 AU at 340 nm and the sample being clear when manually inspected.)
